Laboratory results published in paper PMC12518639, “Apomorphine is a novel necroptosis inhibitor targeting mixed lineage kinase domain-like protein oligomerization” (Cell Death Discovery, 2025).

Legend:
[1] = tested on: mouse MLKL (mMLKL); test: MLKL oligomerization Western blot in J774A.1 cells; format: cell-based; details: J774A.1, TBZ, 20 μM, 8 h
Method: Fig. 2 Effect of redox-sensitive APO on MLKL oligomerization. A Chemical structure of APO. APO undergoes auto-oxidation to form the oxidized form (Ox-APO), while the addition of DTT preserves the reduced form (Re-APO). The red highlights indicate the sites where APO loses hydrogen and electrons during the oxidation process. B Real-time 1D ^1H NMR spectra showing the degree of oxidation of APO. APO was dissolved from its powdered form in DPBS and incubated at 25 °C for 36 h. Real-time 1D ^1H NMR spectra were measured at a 2 h intervals after filtration through a 0.2 μm syringe filter to remove precipitates. […] C MLKL oligomerization is inhibited by APO. THP-1 cells were treated with TBZ and Re-APO or Ox-APO for 8 h. Western blot analysis of WCLs was performed under non-reducing and reducing conditions using the indicated antibodies. Percentage changes of p-MLKL oligomer band relative to GAPDH were shown. The p value for MLKL oligomer band intensity was calculated based on the average intensity of the tetramer and octamer bands. Octa octamer, Tetra tetramer, Mono monomer. Mean ± SEM (n = 3). **p < 0.001, ns not significant, one-way ANOVA. D THP-1 cells were treated with TBZ and Ox-APO or Re-APO for 8 h and then stained with DAPI and MLKL for confocal microscopy. In the intensity graph, green indicates MLKL. The signal intensity of MLKL fluorescence from the plasma membrane to the cytosol was measured using FluoView FV1000 software. Mean ± SEM (n > 100). **p < 0.01, ***p < 0.001, one-way ANOVA. E J774A.1 mouse monocytic cells were treated with TBZ and 20 μM Re-APO or Ox-APO for 8 h. Western blot analysis of WCLs was performed under non-reducing and reducing conditions using the indicated antibodies.
The cells were harvested and lysed in 1× RIPA buffer (R4100-010, GenDEPOT, Katy, TX, USA) containing protease (P3100-001, GenDEPOT) and phosphatase (1862495, Thermo Fisher Scientific) inhibitors. WCLs were then centrifuged at 20,000×g for 30 min at 4 °C and subjected to non-reducing or reducing 8–12% SDS-PAGE gel electrophoresis. The membrane was blocked with 5% non-fat milk in TBS and probed with antibodies. Antibodies to hMLKL (14993S), mMLKL (97705S), phospho-hMLKL (Ser358) (91689S), phospho-mMLKL (Ser345) (37333S), phospho-hRIP1 (Ser166) (65746S), mRIP1 (3493S), phospho-mRIP1 (Ser321) (38662S), phospho-hRIP3 (Ser227) (93654), mRIP3 (95702S), p-mRIP3 (Thr231/Ser232) (91702S), and LDH (2012S) (Cell Signaling Technology, Danvers, MA, USA), and GAPDH (LF-PA0018, Abfrontier, S. Korea), hRIP1 (ab72139, Abcam, Cambridge, UK), hRIP3 (sc-135170, Santa Cruz Biotechnology, Dallas, TX, USA), HMGB1 (ab78923, Abcam), and LAMP1 (ab24170, Abcam) antibodies were used.

[2] = tested on: DSS-induced colitis in C57BL/6 mice; test: DSS-induced colitis model; format: in vivo, mouse
Method: For DSS-induced colitis, male C57BL/6 mice aged 6–8 weeks (Central Lab Animal Inc., S. Korea) were administered 2.5% DSS (36–50 kDa, 9011-18-1, MP Biomedicals, Solon, OH, USA) in their drinking water for 8 days. The 2.5% DSS-supplemented drinking water was prepared by dissolving 12.5 g of DSS powder in 500 mL of distilled water and was freshly prepared and replaced daily throughout the 8 days. Body weight and DAI score were recorded daily. The DAI score was calculated based on weight loss (no weight loss, 1–5%, 5–10%, 10–15%, and >15% weight loss, respectively, representing DAI scores of 0, 1, 2, 3, and 4), stool consistency/diarrhea (normal = 0, loose stools = 2, and watery diarrhea = 4), and bleeding (no bleeding = 0, slight bleeding = 2, gross bleeding = 4). At the end of the experiment, the mice were sacrificed, and tissue samples were collected.
Each mouse colon was removed, measured in length, cut open, fixed in Bouin’s fixative (50% ethanol/5% acetic acid in distilled water), and embedded in paraffin. Tissue sections were stained with H&E (Sigma-Aldrich). Histological evaluation of the colitis lesions along the entire colon was performed using the scoring system: degree of crypt structural damage (0–3), degree of inflammatory cell infiltration (0–3), and degree of submucosal edema (0–3). For PAS staining, deparaffinized and rehydrated tissue sections were treated with 0.5% periodic acid (10450-60-9, Junsei Chemical Co., Tokyo, Japan) and stained with Schiff’s reagent (3952016, Sigma-Aldrich). Sections were dehydrated in ethyl alcohol and coverslipped.

[3] = 15 mg/kg i.p. daily, 2.5% DSS 8 days

Row | SMILES | formation of mMLKL tetramers and octamers [1] | phosphorylation of mRIP1, mRIP3 and mMLKL [1] | average histologic score ([2]; 1.5 mg/kg i.p. daily, 2.5% DSS 8 days) | average histologic score [2, 3] | DAI score and colon length ([2]; i.p. daily, 2.5% DSS 8 days) | alleviation of DSS-induced colitis symptoms relative to Ox-APO ([2]; at the same concentration) | colitis symptoms and pathological changes (H&E, PAS) ([2]; 0.15, 1.5 or 15 mg/kg i.p. daily, oxidative state not determined)
1 | CN1CCc2cccc3c4c(cc1c23)C=CC(=O)C4=O [Ox-APO] | strongly prevented | little effect | 3.0 | 1.2 | more effective than Re-APO | – | –
2 | CN1CCc2cccc3c2C1Cc1ccc(O)c(O)c1-3 (stereo not shown) [Re-APO] | strongly prevented | little effect | – | 2.6 | – | about ten times weaker than Ox-APO | –
3 | CN1CCc2cccc3c2[C@@H]1Cc1ccc(O)c(O)c1-3 [S62, (6aS)-6-methyl-5,6,6a,7-tetrahydro-4H-dibenzo[de,g]quinoline-10,11-diol] | – | – | – | – | – | – | significantly alleviated
